# Assay results from patent publication US8686224B2, “Plant defense signal peptides” (priority 2005, dated 2014).
# pEC50: −log10 of the molar value. “Also recorded” adds a separate entry of the source.
# Assays:
# [1] = tested on: Arabidopsis suspension cultured cells; assay: Alkalinization assay with Arabidopsis suspension cultured cells; type: cell-based, Arabidopsis thaliana; conditions: Arabidopsis suspension cultured cells, pH of media after 20 min
# Experimental: For the alkalinization assay, cells suspensions are grown in a volume of 40 ml in a 125 ml flask. Tobacco and Arabidopsis cells are typically grown for 3-5 days before use. Tomato cells are typically grown for 4-7 days before use. Soybean cells are generally grown for 3-7 days before use. Preferably, cells are in mid to log or log phase when they are to be used for the alkalinization assay. A 1 ml pipette tip with the end cut off (to prevent clogging of the tip with the cells) is used to aliquot 1 ml of the cells from the suspension into a well in a 24-well culture cluster plate. The flask is swirled between aliquots to ensure that the cells remain evenly dispersed throughout the cell suspension and an roughly equivalent number of cells is provided to each well. The plate(s) are then shaken at 160 rpm for 1 hour. Small aliquots ([…]) of extracted peptide fractions are then added to the wells. After 20 min, the pH of the cell media is measured and recorded.
# Alkalinization Assay. Arabidopsis suspension cells were grown with shaking in the dark in 125 mL flasks, using 40 mL NT media as previously described (Pearce et al. Proc. Natl. Acad. Sci. USA 98:12843-12847, 2001). The cells were transferred weekly (2.5 mL) and used for assays 3-5 days after transfer. One mL aliquots of cells were transferred to wells of 24-well culture plates and allowed to equilibrate for one hour while agitated on a rotary shaker at 160 rpm. Aliquots of 1-10 μL from extracts or fractions eluted from HPLC columns were added to cells and the pH of the media was monitored after 20 min.
# Alkalinization assay. Medium alkalinization activity of Arabidopsis suspension cultured cells by AtPep1 analogs was analyzed as previously described for systemin (Pearce et al., Science 253:895-897, 1991), RALF (Pearce et al. Proc. Natl. Acad. Sci. USA 98:12843-12847, 2001), HypSys peptides (Pearce and Ryan. J. Biol. Chem. 278:30044-30050, 2003; Pearce et al., Nature 411:817-820, 2001), and AtPep1 (supra). The alkalinization activity of azido-Cys-AtPep1 were carried out after incubation the analog with cells in darkness for 10 min, when the pH was recorded.
# Analogs of AtPep1 from the C-terminus of AtPep1 were synthesized and assayed in the alkalinization assay. One mL aliquots of 4 day old Arabidopsis cells were allowed to equilibrate on an orbital shaker at 180 rpm for one hour. A 10 μL aliquot of each peptide solution was added to the cells. Peptide concentrations of 0.25 nM, 2.5 nM, and 25 nM were tested. After 20 min, the pH of the media was recorded.
# The 15-mer from the carboxy-terminus of AtPep1 ([…] (SEQ ID NO: 78)) was substituted with alanine at each position to assess which amino acids were necessary for the alkalinizing activity. […] The set of substituted 15-mer peptides was assayed using four-day-old Arabidopsis cells. […] of each peptide (2.5 pmoles) was added to 1 ml of cells to make a final concentration of 2.5 nM. After 20 min, the pH of the media was recorded. The data is the average of three separate experiments.
# [2] = tested on: AtproPep1, MPK3 and WRKY gene expression; assay: Marker gene induction in two-week-old seedlings grown in liquid medium (RT-PCR, qRT-PCR); type: in vivo, Arabidopsis thaliana
# Experimental: Using AtproPep1 and MPK3 as marker genes, the response to AtPep1 of the T-DNA insertional mutants was analyzed. […] […]1 and […]2 mutants are unable to respond to AtPEP1. To further examine the importance of […]1 and […]2 in AtPep1 signaling, the expression level of WRKY transcription factor genes, WRKY22, WRKY29, WRKY33. WRKY53 and WRKY55, were monitored by qRT-PCR after supplying AtPep1 to wild type Arabidopsis and T-DNA insertional mutants of […]1 and […]2. These WRKY genes were reported to be induced by the fungal PAMP, chitin (Wan et al., Plant Cell 20: 471-481, 2008), and the bacterial PAMPs, […] et al., Cell 125:749-760, 2006). […] In the double mutants, […] […] We also examined the effect of supplying AtPep1 to the double mutants on the expression of the antimicrobial protein genes, defensin (PDF1.2) and pathogenesis related protein (PR-1) […] peptides are known to induced these genes (Huffaker and Ryan, Proc. Natl. Acad. Sci. USA 104: 10732-10736, 2007). Since the expression levels of PDF1.2 and PR-1 gene in Arabidopsis seedlings grown in liquid medium were already high, the method of supplying AtPep1 was changed. Four-week-old Arabidopsis plants grown in soil were sprayed with 1 μM AtPep1 in 0.01% Silwet L-77, and subjected to qRT-PCR analysis after 6 hours.
# [3] = tested on: P. syringae pv. tomato DC3000 (Pst DC3000); assay: Pst DC3000 inoculation of Arabidopsis leaves with peptide pre-infiltration; type: in vivo, Pseudomonas syringae
# From the text: The resistance to P. irregulare requires the JA signaling pathway in Arabidopsis (Staswick et al, Plant J. 15: 747-754, 1998), and AtPep peptides induced PDF1.2, a marker gene for the JA response (Huffaker et al., Proc. Natl. Acad. Sci. USA 103: 10098-10103, Huffaker and Ryan, Proc. Natl. Acad. Sci. USA 104: 10732-10736, 2007). […] In order to examine this possibility, Arabidopsis plants were inoculated with P. syringae pv. tomato DC3000 (Pst DC3000) with or without AtPep1 pre-infiltration. Pst DC3000 was extracted from the infected leaves 4 days after infection and colony forming units (cfu/cm^2) were calculated. […] The reduction of Pst DC3000 growth was also not observed when the double mutant, pepr1-1/pepr2-1, was pre-infiltrated with AtPep1. […] Pre-infiltration of AtPep2-6 also attenuated Pst DC3000 growth to different degrees.
# To assess the importance of AtPEPR1 and AtPEPR2 in the resistance to Pst DC3000 after infiltration of AtPep1, T-DNA insertional mutants were inoculated. When 1 μM AtPep1 was infiltrated into leaves one day prior to Pst DC3000 inoculation, the size of the necrotic regions were reduced in both wild type and single mutant lines, pepr1-1 and pepr2-1. […] Similar results were obtained when another set of mutant lines, pepr1-2, pepr2-2 and pepr1-2/pepr2-2, was used.
# [4] = 1 μM one day prior, pepr1-1/pepr2-1
substance,measurement,setting,value
H-ATKVKAKQRGKEKVSSGRPGQHN-OH [AtPep1],activity in the alkalinization assay,[1],"at sub-nanomolar concentrations, to cause an alkalinization response; also recorded: as active as the native AtPep1; also recorded: identical activities as the native peptides"
same,pEC50,[1]; read-out: half-maximal activity in the alkalinization assay,9.60
same,"response (AtproPep1, MPK3) in double mutants of AtPEPR1 and AtPEPR2",[2]; 10 nM for 30 min,completely lost the response
same,"response (AtproPep1, MPK3) in AtPEPR2 mutants","[2]; 10 nM for 30 min, SALK_036564 and SALK_004447",did not show the clear reduction
same,reduction of AtproPep1 and MPK3 induction in AtPEPR1 mutants,"[2]; 10 nM for 30 min, SALK_059281 and SALK_014538",> 50%
same,WRKY responses in double mutants pepr1-1/pepr2-1 and pepr1-2/pepr2-2,"[2]; 10 nM, 30 min",completely abolished
same,lower induction of WRKY genes in pepr1-1 and pepr1-2,"[2]; 10 nM, 30 min",50%
same,"induction of WRKY33, WRKY53, WRKY22, WRKY29 and WRKY55","[2]; 10 nM, 30 min, wild type",highly induced
same,bacterial growth reduced to,"[3]; 1 μM infiltrated one day prior to inoculation, wild type",1/100
same,bacterial growth reduced to,"[3]; 1 μM one day prior, pepr1-1",1/25
same,colony growth in the double mutants,[3]; [4],no decrease in colony growth
same,symptom development in double mutants,[3]; [4],did not affect symptom development
same,bacterial growth reduced to,"[3]; 1 μM one day prior, pepr2-1",1/100
same,size of the necrotic regions,"[3]; 1 μM one day prior, wild type and single mutants pepr1-1 and pepr2-1",reduced
same,Pst DC3000 growth in double mutant pepr1-1/pepr2-1,[3]; pre-infiltration,not observed
same,"attenuation of Pst DC3000 in fad3,7,8, npr1-1 and sid2-2 mutants",[3]; pre-infiltration,differentially diminished
same,effect on Pst DC3000 growth compared with flg22 pre-infiltration,"[3]; pre-infiltration, wild type",more effective than flg22 pre-infiltration
same,Pst DC3000 growth in leaves after pre-infiltration,"[3]; wild type, cfu/cm^2 4 days after infection, AtPep1 10 nM solution",reduced Pst DC3000 growth in leaves
